Measurements: publication PMC9915759, “Structural Basis for Self-Discrimination by Neoantigen-Specific TCRs” (Research Square, 2023)
pEC50: −log10 of the molar value. Read-outs that look alike come from different tables or passages of the source.

Tested on: TCR 47BE7
Test: IFNγ intracellular cytokine staining of tgTCR 47BE7 CD8^+ T cells stimulated with peptide
Type: cell-based, mouse
Conditions: for pEC50: tgTCR 47BE7 CD8^+ T cells, titrated peptide and αCD28, 6 hours, ICS
Method: Fig. 2 | Neoantigen-reactive CD8^+ T cells recognise cognate peptide in vitro and in vivo. a, Table detailing attributes of tumour-reactive T cell receptors (TCRs), including neoantigen-reactive (top) and tumour-associated antigen-reactive (TAA-reactive) (bottom) TCRs isolated upon vaccination. b, Neoantigen-reactive CD8^+ T cell responses were induced by vaccination; isolated tetramer^+ T cells were stimulated for 6 hours with (varying concentrations of) cognate peptide and αCD28 and subsequently analyzed via intracellular staining (ICS) flow cytometry for IFNγ expression. c, Transgenic (tg)TCR CD8^+ T cells were co-incubated with varying concentrations of cognate mutant (MT) peptide or wild type (WT) peptide (x-axis) and αCD28 for 6 hours; intracellular staining (ICS) was performed subsequently. Percentage of T cells expressing IFNγ of a parent CD3^+CD8^+ population is shown on y-axis, normalised to maximum IFNγ expression. MT peptide values are shown as clear circles, and WT as filled, black circles. […] TgTCR CD8^+ T cells expressing the indicated TCR were stimulated, as described in c, with titrated mutant (MT) or wild-type (WT) peptide and IFNγ production was measured by ICS. […] Cytokine production was measured by intracellular staining (ICS) flow cytometry (n=3/condition). […] Heatmap shown summarises the frequency of CD8^+tgTCR^+IFγ^+. f, C57BL/6 mice (n=16–26/group) were treated with Hsf2 neoantigen vaccine or PBS (mock) in accordance with timeline shown (top). tumour growth was monitored via external caliper measurement and plotted versus time since tumour inoculation (bottom). g, Tetramer staining on CD3^+ CD8^+ T cells isolated from tumour-infiltrating lymphocytes (TIL) or peripheral blood mononuclear cells (PBMCs) from mice vaccinated with each of the neoantigens listed, using same methodology as described in b. h, Schematic describing administration of ACT in vivo. […]
Fig. 4 | Structure of the pMHC-TCR ternary complex. a, Kinetics of TCR-47BE7 binding to immobilised H2-D^b/Hsf2 p.K72N as determined by biolayer interferometry. […]

Row | pEC50 (n=3, read-out: functional avidity, half-maximal IFNγ production (EC50)) | pEC50 (95%CI NR, read-out: half-maximal IFNγ production (EC50)) | SMILES | cytokine production on a per-cell basis at saturating peptide concentrations (MT versus WT peptide)
1 | 11.25 |  | CC[C@H](C)[C@H](NC(=O)[C@H](Cc1c[nH]cn1)NC(=O)[C@@H](NC(=O)[C@@H](NC(=O)[C@H](CC(N)=O)NC(=O)[C@H](CCCNC(=N)N)NC(=O)[C@H](Cc1ccccc1)NC(=O)CNC(=O)[C@@H](N)Cc1ccc(O)cc1)C(C)C)C(C)C)C(=O)O [Hsf2 p.K72N68–76] | 
2 |  | 5.06 | CC[C@H](C)[C@H](NC(=O)[C@H](Cc1c[nH]cn1)NC(=O)[C@@H](NC(=O)[C@@H](NC(=O)[C@H](CCCCN)NC(=O)[C@H](CCCNC(=N)N)NC(=O)[C@H](Cc1ccccc1)NC(=O)CNC(=O)[C@@H](N)Cc1ccc(O)cc1)C(C)C)C(C)C)C(=O)O [Hsf2_68–76] | partial agonist only
